# Experimental data published in paper PMC7822874, “Chemoprotective antimalarials identified through quantitative high-throughput screening of Plasmodium blood and liver stage parasites” (Scientific Reports, 2021).
# Like-named read-outs stand apart in the source and are kept apart here.
# What was measured:
# in vitro = details: human
# [1] = system: P. berghei-ANKA-GFP-LucCON liver stage parasites in HepG2-A16-CD81EGFP cells; test: P. berghei liver stage Pb-Luc assay, Method 1 (UCSD, 1536-well); format: cell-based, Plasmodium berghei; details: for activity at 1 µM / activity at 3 µM: 48 h, average of 2 wells on a 1536 well plate; for activity at 1 µM: 1 uM (compounds provided at 10 mM); for activity at 3 µM: 3 uM (compounds provided at 10 mM); for Max Resp (signal direction of the dose response) / AC50 / Log AC50 (M): Method 1; for Max Resp (signal direction of the dose response): Decrease = decreasing P. berghei viability with dose, Increase = increasing signal, Inactive = no dose response
# [2] = system: Plasmodium falciparum Dd2 asexual blood stage parasites; test: microbe, parasite or virus in culture; parameters: species or system Plasmodium falciparum Dd2 in human erythrocytes; single determination (one 11-point concentration-response curve); details: Plasmodium falciparum, DD2, Erythrocyte, 72 h; read-out: AC50
# [3] = HepG2-A16-CD81EGFP cells, uninfected
# [4] = Plasmodium berghei, column 11, read-out: Pb-Luc (P. berghei liver stage), % of control, lower concentration, first repeat
# [5] = Plasmodium berghei, column 12, read-out: Pb-Luc (P. berghei liver stage), % of control, lower concentration, second repeat
# [6] = Plasmodium berghei, column 8, read-out: Pb-Luc (P. berghei liver stage), % of control, higher concentration, first repeat
# [7] = Plasmodium berghei, column 9, read-out: Pb-Luc (P. berghei liver stage), % of control, higher concentration, second repeat
# [8] = Hill fit, 50% of maximum activity response, read-out: AC50
# [9] = log10 of molar AC50 from Hill fit
# [10] = Plasmodium berghei, Hill fit, 50% of maximum activity response, read-out: AC50
# [11] = Plasmodium berghei, log10 of molar AC50 from Hill fit, read-out: Log AC50 (converted)
Structure (SMILES),"viability at 48 h, 1 µM (in vitro; [3])","viability at 48 h, 3 µM (in vitro; [3])","activity at 1 µM [1, 4]","activity at 1 µM [1, 5]","activity at 3 µM [1, 6]","activity at 3 µM [1, 7]",AC50 [2],viability at 66 h (in vitro; [3]),Max Resp (signal direction of the dose response) [1],"AC50 [1, 8]","Log AC50 (M) [1, 9]","AC50 [1, 10]","AC50 [1, 11]",viability at 48 h (in vitro; [3]),viability at 66 h (in vitro)
COc1cc(O)c(C(CCN2CCN(c3ccccc3)CC2)c2cc(OC)c(OC)c(OC)c2)c(OC)c1 (stereo not drawn) [MLS000879517-01],96%,102%,87%,82%,84%,91%,1330 nM,,,,,,,,
Cn1c(S)nc2sc3c(c2c1=O)CCC(C(C)(C)C)C3 (stereo not drawn) [MLS001198408-01],97%,107%,80%,94%,69%,61%,5310 nM,,,,,,,,
OCCNc1nc(Nc2ccc(Br)cc2)nc2ccccc12 [MLS000625070-01],,,,,,,2660 nM,97%,Decrease,2240 nM,-5.650 M,1410 nM,1410 nM,,
CCOC(=O)c1ccc(N=C(S)N2CCN(CCNC3=CC(=O)CC(C)(C)C3)CC2)cc1 [MLS000710946-01],96%,101%,118%,96%,134%,116%,5960 nM,,,,,,,,
CCCOc1ccc(CCc2nnc(S)n2Cc2ccccc2)cc1 [MLS000562311-01],122%,100%,157%,149%,161%,162%,5310 nM,,,,,,,,
CCOC(=O)c1c(NC(=O)c2ccccc2)sc2c(O)c(CN(CC)CC)ccc12 [MLS000523141-01],91%,102%,104%,107%,99%,98%,150 nM,,,,,,,,
CC(C)(C)CC(C)(C)c1ccc(O)c(CN2CCN(CCC#N)CC2)c1 [MLS000026875-01],112%,97%,129%,117%,119%,112%,841 nM,,,,,,,,
CCOC(=O)CCCCC(=O)c1[nH]c(=O)[nH]c1Cn1ccnc1 [MLS000092014-01],98%,107%,140%,105%,84%,105%,2660 nM,,,,,,,,
CCCc1ccc(OCc2nc(-c3ccc(NC(=O)c4cccs4)cc3)no2)cc1 [MLS000584893-01],97.2%,,,,,,15000 nM,,Decrease,,,1410 nM,1410 nM,97.2%,
Nc1cc[n+](CC(=O)c2ccc3c(c2)OCCO3)cc1 [MLS000391090-01],97.8%,,,,,,13300 nM,,Inactive,,,,,97.8%,
COc1ccc(-c2c(C)nn3c(N)c(C#N)cnc23)cc1OC [MLS000718813-01],,,,,,,1680 nM,108%,Decrease,1410 nM,-5.850 M,1260 nM,1260 nM,,
CCOC(=O)c1cnc2c(C)cc(C)cc2c1O [MLS000530578-01],,,,,,,4220 nM,,,,,1410 nM,1410 nM,,104%
Cc1[nH]c2c(C)cccc2c(=O)c1Br [MLS000036254-01],107%,,,,,,5310 nM,,Decrease,1580 nM,-5.800 M,1120 nM,1120 nM,107%,
O=C(Nc1cccnc1)c1cc(-c2cccnc2)nc2ccc(Br)cc12 [MLS000582206-01],109%,104%,112%,106%,80%,95%,2660 nM,,,,,,,,
CCNc1nc(OC)nc(Oc2ccc(=O)n(-c3ccccc3)n2)n1 [MLS000034902-01],112%,101%,118%,109%,117%,126%,5960 nM,,,,,,,,
CCCCCCCNC(=O)C1(CC2CC(c3ccc(Cl)cc3)=NO2)CCN(C(=O)c2cc(OCC)c(OCC)c(OCC)c2)CC1 (stereo not drawn) [MLS001143958-01],103%,,,,,,3350 nM,,Decrease,,,2820 nM,2820 nM,103%,
COCC(C)n1c(C)cc(C(=O)CSc2nnc(Nc3ccccc3F)s2)c1C (stereo not drawn) [MLS000566129-01],95%,101%,126%,124%,118%,120%,2990 nM,,,,,,,,
COc1cc2ccccc2cc1C(=O)N1CC(C)CC(C)C1 (stereo not drawn) [MLS001129394-01],108%,98%,125%,114%,67%,101%,2370 nM,,,,,,,,
Cc1ccc(/C=N/Nc2cc(C)nc(NCc3ccccc3)n2)cc1 [MLS000769291-01],98%,95%,97%,106%,138%,126%,5310 nM,,,,,,,,
CCCc1cc(=O)oc2cc(C)cc(OCC(=O)Nc3ccccn3)c12 [MLS001160382-01],97%,111%,212%,140%,42%,160%,2110 nM,,,,,,,,
Cc1ccc(C)c(NC(=O)CN(C)C(=O)c2ccc(-c3ccc(Cl)cc3)o2)c1 [MLS001077062-01],98%,102%,137%,128%,154%,145%,4730 nM,,,,,,,,
COc1cc(O)c(C(CCN2CCCCC2)c2ccc3c(c2)OCO3)c(OC)c1 (stereo not drawn) [MLS000879495-01],113%,94%,100%,116%,99%,98%,1330 nM,,,,,,,,
CN(CC(=O)Nc1cccc(F)c1)C(=O)c1ccc(-c2cccc(C(F)(F)F)c2)o1 [MLS001139679-01],103%,99%,156%,127%,81%,96%,668 nM,,,,,,,,
CCOC(=O)c1nnn(-c2nonc2-n2cccc2)c1CN1CCC(C(=O)OCC)CC1 [MLS000538888-01],108%,103%,103%,96%,92%,82%,4730 nM,,,,,,,,
Oc1ccccc1Nc1nc(NCc2ccco2)c2ccccc2n1 [MLS000693437-01],95.6%,,,,,,2990 nM,,Inactive,,,,,95.6%,
